# According to US7629317B2, “Control of growth and repair of gastro-intestinal tissues by gastrokines and inhibitors” (The University of Chicago, priority 2001, dated 2009):
# pEC50: −log10 of the molar value.
# Tests used:
# IEC-18 cells = assay: Growth of confluent cultures of IEC-18 cells (cell count); assay type: cell-based, rat; settings: confluent IEC-18 cultures, FIG. 13; read-out: half-maximal concentration (K1/2) for growth stimulation
# Method: Confluent cultures of IEC-18 cells were prepared. One day later, medium was aspirated and replaced with 5 ml of DMEM containing CS (0.5%) and insulin, without (control) or with mitogenic peptide 58-99 (8 μg/ml). Sister plates receiving 1 ml medium and different amounts of peptide 67-85 were incubated at 1 hr at 38° C. on a CO2 incubator, and then an additional 4 ml of medium was added to each dish. Peptide 58-99 was added to 2 of the 4-sister plates at each concentration of peptide 67-85, and the number of cells was counted. […] Stimulation of cell growth by mitogenic peptide 58-99 was completely abolished by preincubation of cells with 0.25 μg/ml of peptide 67-85. […] Values for the number of cells per culture are shown relative to multiplication of cells exposed to the vehicle during the same period.
# Urea (6 M) was employed to release proteins from the insoluble fraction solubilize rhAMP-18 containing the His6-tag (SEQ ID NO: 16), and make it available to bind to the Ni^2+-charged resin from which it was subsequently eluted with a gradient of imidazole (0 to 200 mM). The amount of eluted rhAMP-18 was measured using the BCA assay, and the appearance of a single band at the predicted size of 19-20 kD was confirmed by SDS-PAGE followed by immunoblotting. To determine if eluted rhAMP-18 renatured to assume a structure that was mitogenic, aliquots of the eluate (following removal of urea and imidazole by dialysis) were added to cultures of IEC-18 cells and the number of cells was counted 4 days later. […] AMP peptide 77-97 refers to the mature protein; same as peptide 97-117 of human precursor protein: Table 1. These observations indicate that biologically active recombinant human AMP-18 that can be utilized in diverse clinical situations is available. The mitogenic potency of rhAMP-18 is in the nanomolar range which would be expected for a native gastric cell growth factor that participates in the maintenance and repair of the stomach in vivo.
# To characterize the capacity of gastric and intestinal cells to respond to AMP-18, AGS gastric adenocarcinoma cells, HAE human gastric antrum mucosa primary cultures transformed with SV40 large T antigen, rat diploid small intestinal epithelial cells of the IEC-6 (FIG. 15) and IEC-18 lines, NCI N-87 gastric carcinoma cells, and SK-GT5 gastroesophageal adenocarcinoma cells were studied; human WI-38 fibroblasts and HeLa cells served as non-GI control cell lines. Mitogenesis was assayed by performing cell counts 3 to 4 days after exposing cells to the agent of interest, trypsinizing the culture to prepare single cells, and confirming this while counting them in a hemocytometer.
# [1] = test system: occludin, ZO-1, ZO-2, claudin-5, E-cadherin, JAM; assay: Accumulation of tight and adherens junction proteins in C2 cells (immunoblot of insoluble fraction, confocal microscopy); assay type: cell-based, human
# Method: To find out how the peptide exerts its cytoprotective effect, C2 cell monolayers were treated with AMP peptide, and oxidant injury was induced with monochloramine 18 hours later. Changes in the levels of specific tight junction (TJ) proteins were checked. Cells were lysed, and proteins of the insoluble/particulate fraction were studied by immunoblotting. […] This observation represents the first evidence that AMP peptide enhances accumulation of specific TJ proteins in colonic epithelial cells. […] To carry out this experiment, C2 cells were exposed to AMP peptide for different periods of time, the NP-40-insoluble fraction was obtained, Western blots were prepared, and the amount of each immunoreactive protein was quantified. A 65% increase in immunoreactivity of each protein compared to control was detected for occludin after 2 hr, and for ZO-1 at 8 hr. Hsc73, which is constitutively expressed in these cells, was not altered by exposure to AMP peptide for up to 18 hr.
# Confluent monolayers of C2 cells were treated with AMP peptide or vehicle for 8 hr. Cells were then collected, proteins in the NP-40-insoluble fraction were separated by SDS-PAGE, immunoblots were prepared, and the relative amounts of immunoreactive proteins were compared by densitometric analysis. […] These changes appear relatively specific for occludin, ZO-1, ZO-2, claudin-5, E-cadherin, and JAM because they were not observed for several other proteins localized in the TJ (claudin-1, claudin-2), adherens junction (β-catenin), plasma membrane (Na-K-2Cl cotransporter, α or β subunit of Na-K-ATPase), or cytosol (Rho A, hsc73).
# To better understand the mechanism(s) by which AMP peptide enhances accumulation of TJ-associated proteins, experiments were performed to determine whether the peptide exerted its effect at the apical or basolateral surface of C2 cells. Monolayers of C2 cells were grown on Transwell filters, AMP peptide (8:g/ml) was added to the apical or basolateral compartment of the Transwell, and cells were harvested 8 hr later. The NP-40-insoluble fraction was obtained, its proteins separated, and immunoblots were prepared.
sequence,measurement,setting,value
"LDALVKEKKLQGKGPGGPPPK [97–117, peptide 77-97 of the mature protein, same as 97-117 of the human precursor]",pEC50,IEC-18 cells,~6.52
same,"changes in claudin-1, claudin-2, β-catenin, Na-K-2Cl cotransporter, Na-K-ATPase subunits, Rho A, hsc73",[1],not observed
same,increase in accumulation of junctional adhesion molecule (JAM),[1]; 48 and 72 hr vs 0 hr,~50%
same,increased accumulation of E-cadherin,[1]; 8 hr,2 fold
same,"increased accumulation of occludin, ZO-1, ZO-2 and claudin-5","[1]; 8 hr, densitometric analysis",3- to 6 fold
same,accumulation of occludin and ZO-1 (specificity),"[1]; 8 hr, peptides 8 μg/ml, EGF 50 ng/ml",enhanced accumulation
same,ZO-1 and occludin levels in the insoluble fraction versus vehicle,[1]; after oxidant injury,two-fold
same,"accumulation of occludin and claudin-5, basolateral exposure","[1]; basolateral compartment of Transwell, 8 hr",increased accumulation
same,Hsc73 expression,[1]; exposure up to 18 hr,not altered
same,increase in occludin immunoreactivity compared to control,"[1]; non-injured cells, after 2 hr",65%
same,increase in ZO-1 immunoreactivity compared to control,"[1]; non-injured cells, at 8 hr",65%
same,occludin immunoreactivity versus vehicle-treated control cells,"[1]; peptide 8 μg/ml, 18 hr, listed as AMP peptide",double
